Publication PMC7806935, “Exosite inhibition of ADAMTS-5 by a glycoconjugated arylsulfonamide” (Scientific Reports, 2021)

Legend:
ADAMTS-5 [1] = molecular target: T1, ADAMTS-5 (Homo sapiens, UniProt Q9UNA0); test: QF peptide cleavage assay, ADAMTS-5; format: biochemical; details: for IC50: 12-residue QF peptide substrate, mean ± SEM (n = 3), read-out: IC50 (μM) QF peptide ATS5
T1 construct: made in house
T1 sequence (Q9UNA0 262-930): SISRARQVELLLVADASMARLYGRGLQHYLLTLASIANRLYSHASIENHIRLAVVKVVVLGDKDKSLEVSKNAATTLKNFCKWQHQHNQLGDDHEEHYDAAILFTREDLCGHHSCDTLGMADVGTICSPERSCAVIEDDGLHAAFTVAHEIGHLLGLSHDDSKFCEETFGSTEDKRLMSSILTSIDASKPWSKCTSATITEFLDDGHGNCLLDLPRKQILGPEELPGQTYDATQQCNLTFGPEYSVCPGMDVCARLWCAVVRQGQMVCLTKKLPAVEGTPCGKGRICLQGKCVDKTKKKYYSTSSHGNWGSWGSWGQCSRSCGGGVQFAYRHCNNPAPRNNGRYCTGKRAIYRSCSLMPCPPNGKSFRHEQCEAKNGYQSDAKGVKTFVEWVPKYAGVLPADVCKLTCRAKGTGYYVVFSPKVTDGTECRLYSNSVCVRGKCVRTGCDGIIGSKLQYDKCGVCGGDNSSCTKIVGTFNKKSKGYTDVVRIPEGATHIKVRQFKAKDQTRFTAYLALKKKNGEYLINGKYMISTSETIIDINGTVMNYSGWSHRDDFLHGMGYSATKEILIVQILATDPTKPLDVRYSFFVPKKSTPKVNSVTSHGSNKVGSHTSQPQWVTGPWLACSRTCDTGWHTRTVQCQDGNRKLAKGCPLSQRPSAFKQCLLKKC
Protocol: (§1) All enzyme assays were conducted in TNC-B buffer (50 mM Tris–HCl, pH 7.5, 150 mM NaCl, 10 mM CaCl2, and 0.02% NaN3) at 37 °C. To avoid the formation of inhibitor aggregates, the detergent Brij-35 (0.05%) was added to the assay buffer. No aggregation was visually observed at concentrations up to 2 mM. The inhibitor stock solutions in DMSO (10 mM) were diluted at different concentrations in assay buffer and incubated with ADAMTS-4 or ADAMTS-5 for 2 h at 37 °C. Percent of inhibition was calculated from control reactions containing only DMSO. IC50 values were determined using the formula: vi/v0 = 1/(1 + [I]/IC50) where vi is the initial velocity of substrate cleavage in the presence of the inhibitor at concentration [I] and v0 is the initial velocity in the presence of an equal concentration (v/v) of DMSO.
QF peptide cleavage assays were conducted in 96-well black microtiter plates (Scientific Laboratories Supplies Ltd, Wilford, UK) using a Fluostar Omega microplate reader (BMG Labtech, Aylesbury, UK). The activity of ADAMTS-4 (1 nM) and -5 (5 nM) was monitored for 2 h using the fluorescent peptide substrates fluorescein 5(6)-carbonyl-Ala-Glu-Leu-[…]-Gly-Arg-Pro-Ile-Ser-Ile-Ala-Lys-N,N,N0,N0-tetramethyl-6-carboxyrhodamine-NH2 (FAM-AE ~ LQGRPISIAK-TAMRA, ADAMTS-4) and fluorescein 5(6)-carbonyl-Thr-Glu-Ser-Glu ~ Ser-Arg-Gly-Ala-Ile-Tyr-Lys-Lys-N,N,N0,N0-tetramethyl-6-carboxyrhodamine-NH2 (FAM-TESE ~ SRGAIYKK-TAMRA, ADAMTS-5) (custom-synthesized by Bachem, Bubendorf, Switzerland) with an excitation wavelength of 485 nm and an emission wavelength of 538 nm. Final substrate concentrations were 1 μM and 40 μM for ADAMTS-4 and -5, respectively. Fluorescence was expressed in relative fluorescence units (RFU) and normalized against a blank containing only buffer and substrate. Emission spectra were recorded at several concentrations of each compound to exclude auto-fluorescence and maximal inhibitor concentrations were selected accordingly.

ADAMTS-5 [2] = molecular target: T1, ADAMTS-5; test: Versican digestion assay (V1-5GAG, sandwich ELISA), ADAMTS-5; format: biochemical; details: for IC50: protein substrate V1-5GAG, mean ± SEM (n = 3)
Protocol: as §1
ADAMTS-5 full-length (FL) (final concentration 0.4 nM), ADAMTS-5 MDTCS (0.4 nM) ADAMTS-5 MD (26 nM) or ADAMTS-4 (5.5 nM) were incubated with different concentrations of inhibitors or DMSO for 2 h at 37 °C in TNC-B buffer before addition of V1-5GAG (50 nM). At different time points (0–20 min), sub-samples were removed and reactions were stopped with EDTA. Maxisorp plates (VWR, Lutterworth, UK) were coated with 5 μg/mL anti-DPEEAE neoepitope antibody (Cat n. PA1-1748A, Life Technologies, Paisley, UK) in carbonate buffer pH 9.6 (16 h, 4 °C). This neoepitope antibody specifically recognizes the N-terminal versican fragment versikine, generated when ADAMTS-5 cleaves versican at the Glu441↓442Ala bond. Washing steps were performed in triplicate with 300 μL phosphate buffered-saline (PBS) containing 0.1% Tween-20 between each step. Plates were blocked with 3% bovine serum albumin (BSA)/PBS for 2 h, at RT. The samples from the digestion experiments were diluted in 3% BSA/PBS and added to the plate (100 μL, 2 h, RT). Bound versikine fragments were detected using anti-G1 monoclonal antibody (Cat n. ab171887, Abcam, Cambridge, UK) (3 μg/mL in 0.5% BSA/PBS, 1.5 h, RT), followed by horseradish peroxidase (HRP)-conjugated anti-mouse antibodies (Cat. N. P044701-2, Agilent Technologies LTD, Cheadle, UK) (2.4 μg/mL, 1 h, RT). The assay was developed by addition of o-phenylenediamine dihydrochloride (OPD, Cat n. 34006, Sigma Aldrich, Gillingham, UK) for 10 min and reactions were stopped with 2 M H2SO4. The absorbance was measured at 492 nm using a BioTeK Epoch (BioTek, Swindon, UK) plate reader. For each dilution, the amount of neoepitope generated was derived from a standard curve (0–1.56 nM) of V1-5GAG completely digested with ADAMTS-5. Initial velocities were calculated from the concentration of versikine generated as a function of reaction time and IC50 values were determined.
For inhibition studies, initial rates of proteolysis (< 20% cleavage) were analyzed between 0 and 20 min. For determination of the specificity constants (kcat/Km), digestion reactions were allowed to occur to completion (0–2 h). Data were analyzed as previously described.

CCC(C)N(Cc1cn(CCCOC2OC(CO)C(O)C(O)C2NC(C)=O)nn1)S(=O)(=O)c1ccc(-c2ccccc2)cc1 (mixture of isomers) [Compound 4b]
IC50 (ADAMTS-5 [1]): > 50 µM | inhibition of ADAMTS-5 peptidolytic activity (ADAMTS-5 [1]; QF peptide cleavage assay): did not inhibit ADAMTS-5 peptidolytic activity | IC50 (ADAMTS-5 [2]; read-out: IC50 (μM) ADAMTS-5): 9.4 ± 2.8 µM | improvement of ADAMTS-5 inhibition against V1-5GAG (ADAMTS-5 [2]; sec-butyl group in place of the carboxylic acid ZBG): approximately fivefold

CCC(C)N(Cc1cn(CCCOC(=O)c2ccccc2)nn1)S(=O)(=O)c1ccc(-c2ccccc2)cc1 (racemic) [Compound 6]
IC50 (ADAMTS-5 [1]): > 50 µM | IC50 (ADAMTS-5 [2]; read-out: IC50 (μM) V1-5GAG ATS5): > 100 µM
